According to patent US10040802B2, “Thienopyrazine inhibitors of IRAK4 activity” (MERCK SHARP & DOHME CORP., priority 2015, dated 2018):
Counter-ions that a name gives are not always drawn.

These compounds were tested against GST tagged IRAK4 (Homo sapiens (Human), UniProt Q9NWZ3) (assay: IRAK4 Kinase Assay (IMAP fluorescence polarization)). Conditions: 0.5 nM GST tagged IRAK4, 100 μM ATP, 30 minutes at 25° C.
Type: biochemical
How it was run: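 GST-tagged IRAK4 (0.5 nM) phosphorylates 100 nM fluorescent peptide with 100 μM ATP in 10 mM Tris pH 7.2, 1 mM MgCl2, 1 mM DTT, 0.01% Tween 20 for 30 min at 25 °C. Phosphorylation read as IMAP nanoparticle-binding fluorescence polarization after stop reagent.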

Chain of GST tagged IRAK4 (Q9NWZ3 whole entry): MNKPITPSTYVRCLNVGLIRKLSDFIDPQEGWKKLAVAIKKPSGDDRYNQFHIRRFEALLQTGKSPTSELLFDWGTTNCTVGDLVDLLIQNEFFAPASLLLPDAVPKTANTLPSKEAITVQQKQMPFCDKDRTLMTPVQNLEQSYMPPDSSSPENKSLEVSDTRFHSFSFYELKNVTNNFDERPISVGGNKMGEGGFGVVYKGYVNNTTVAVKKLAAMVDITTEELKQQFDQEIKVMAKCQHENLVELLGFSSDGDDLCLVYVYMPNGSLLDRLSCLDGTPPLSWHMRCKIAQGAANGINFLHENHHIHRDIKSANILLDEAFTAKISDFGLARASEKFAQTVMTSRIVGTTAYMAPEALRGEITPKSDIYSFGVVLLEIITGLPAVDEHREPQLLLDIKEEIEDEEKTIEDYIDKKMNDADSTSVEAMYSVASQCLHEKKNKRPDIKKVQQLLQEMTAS

Row | IC50 | SMILES
1 | 2100 nM | N[C@@H]1[C@H](Nc2cnc3scc(C(=O)Nc4cscc4Br)c3n2)CCCC1(F)F [Example 68, 2-{[(1R,2R)-2-amino-3,3-difluorocyclohexyl]amino}-N-(4-bromothiophen-3-yl) thieno[2,3-b] pyrazine-7-carboxamide formate]
2 | 2070 nM | N[C@@H]1[C@H](Nc2cnc3scc(C(=O)Nc4ccsc4Br)c3n2)CCCC1(F)F [Example 71, 2-{[(1R,2R)-2-amino-3,3-difluorocyclohexyl]amino}-N-(2-bromothiophen-3-yl) thieno[2,3-b] pyrazine-7-carboxamide trifluoroacetate]
3 | 422 nM | N#Cc1sccc1NC(=O)c1csc2ncc(N3CCCNCC3)nc12 [Example 72, N-(2-cyanothiophen-3-yl)-2-(1,4-diazepan-1-yl)thieno[2,3-b] pyrazine-7-carboxamide trifluoroacetate]
4 | 1590 nM | O=C(Nc1ccsc1C(F)(F)F)c1csc2ncc(N3CCCNCC3)nc12 [Example 73, 2-(1,4-diazepan-1-yl)-N-[2-(trifluoromethyl)thiophen-3-yl] thieno[2,3-b] pyrazine-7-carboxamide trifluoroacetate]
5 | 12 nM | N[C@H]1CCCC[C@H]1Nc1cnc2scc(C(=O)Nc3ccsc3C(F)(F)F)c2n1 [Example 76, 2-{[(1R,2S)-2-amino-cyclohexyl]amino}-N-(2-(trifluoromethyl)thiophen-3-yl] thieno[2,3-b] pyrazine-7-carboxamide trifluoroacetate]
6 | 0.5 nM | N#Cc1sccc1NC(=O)c1csc2ncc(N[C@@H]3CCCC[C@@H]3N)nc12 [Example 77, 2-{[(1R,2S)-2-amino-cyclohexyl]amino}-N-(2-(cyanothiophen-3-yl)thieno[2,3-b]pyrazine-7-carboxamide trifluoroacetate]
7 | 3660 nM | N#Cc1sccc1NC(=O)c1csc2ncc(N[C@@H]3CCCC(F)(F)[C@@H]3N)nc12 [Example 78, 2-{[(1R,2R)-2-amino-3,3-difluorocyclohexyl]amino}-N-(2-cyanothiophen-3-yl) thieno[2,3-b] pyrazine-7-carboxamide trifluoroacetate]
8 | 371 nM | N#Cc1cscc1NC(=O)c1csc2ncc(N[C@@H]3CCCC(F)(F)[C@@H]3N)nc12 [Example 79, 2-{[(1R,2R)-2-amino-3,3-difluorocyclohexyl]amino}-N-(4-cyanothiophen-3-yl) thieno[2,3-b] pyrazine-7-carboxamide trifluoroacetate]
9 | 558 nM | N#Cc1ccccc1NC(=O)c1csc2ncc(N3CCCNCC3)nc12 [Example 80, N-(2-Cyanophenyl)-2-(1,4-diazepan-1-yl)thieno[2,3-b]pyrazine-7-carboxamide]
10 | 86 nM | N[C@H]1CCCC[C@H]1Nc1cnc2scc(C(=O)Nc3ccccc3C(F)(F)F)c2n1 [Example 81, 2-{[(1R,2S)-2-aminocyclo-hexyl]amino}-N-[2-(trifluoromethyl)phenyl]thieno[2,3-b]pyrazine-7-carboxamide trifluoroacetate]
11 | 2340 nM | O=C(Nc1ccccc1Br)c1csc2ncc(N3CCCNCC3)nc12 [Example 82, N-(2-bromophenyl)-2-(1,4-diazepan-1-yl)thieno[2,3-b]pyrazine-7-carboxamide trifluoroacetate]
12 | 899 nM | N#Cc1ccccc1NC(=O)c1csc2ncc(N3CCNCC4(CC4)C3)nc12 [Example 83, N-(2-cyanophenyl)-2-(5,8-diazaspiro-[2.6]non-5-yl)-thieno[2,3-b]-pyrazine-7-carboxamide trifluoroacetate]
13 | 33 nM | N#Cc1ccccc1NC(=O)c1csc2ncc(N3CCC[C@@H](N)C3)nc12 [Example 84, 2-[(3R)-3-aminopiperidin-1-yl]-N-(2-cyanophenyl)-thieno[2,3-b]-pyrazine-7-carboxamide trifluoroacetate]
14 | 2 nM | N#Cc1ccccc1NC(=O)c1csc2ncc(N[C@@H]3CCCNC3)nc12 [Example 85, N-(2-cyanophenyl)-2-[(3R)-piperidin-3-ylamino]-thieno[2,3-b]-pyrazine-7-carboxamide trifluoroacetate]
